The values that follow are results of earlier work, collected in patent publication US12427127B2 (priority 2018, dated 2025).

On to `O=NN(CCCl)C(=O)NCCCl` [Carmustine, 1,3-bis (2-chloroethyl)-1-nitrosourea], for which the “Solubility in alcohol and lipids” value is recorded as “highly soluble”; the Solubility in water result is on record as “poorly soluble”.
